Data from patent publication US11472766B2, “Lipid nanoparticle composition” (Suzhou Abogen Biosciences Co., Ltd., priority 2020, dated 2022).

Assays:
[1] = Encapsulation efficiency of lipid nanoparticles (Quant-it Ribogreen RNA quantification assay); type: physicochemical; details: LNP encapsulating hEPO mRNA; Table 3
Protocol: (§1) Briefly, a cationic lipid provided herein, DSPC, cholesterol, and PEG-lipid were solubilized in ethanol at a molar ratio of 50:10:38.5:1.5, and mRNA were diluted in 10 to 50 mM citrate buffer, pH=4. The LNPs were prepared at a total lipid to mRNA weight ratio of approximately 10:1 to 30:1 by mixing the ethanolic lipid solution with the aqueous mRNA solution at a volume ratio of 1:3 using a microfluidic apparatus, total flow rate ranging from 9-30 mL/min. Ethanol were thereby removed and replaced by DPBS using dialysis. Finally, the lipid nanoparticles were filtered through a 0.2 μm sterile filter.
(§2) Lipid nanoparticle size were determined by dynamic light scattering using a Malvern Zetasizer Nano ZS (Malvern UK) using a 173° backscatter detection mode. The encapsulation efficiency of lipid nanoparticles were determined using a Quant-it Ribogreen RNA quantification assay kit (Thermo Fisher Scientific, UK) according to the manufacturer's instructions.

[2] = Lipid nanoparticle size by dynamic light scattering (Malvern Zetasizer Nano ZS); type: physicochemical; details: LNP: cationic lipid/DSPC/cholesterol/PEG-lipid 50:10:38.5:1.5, hEPO mRNA; Table 3
Protocol: as §1, §2

[3] = system: human erythropoietin (hEPO) mRNA; experiment: Animal study: hEPO expression after tail vein injection of LNPs encapsulating hEPO mRNA (serum ELISA); type: in vivo; details: hEPO level, female ICR mice, 0.5 mg/kg, 6 hours post administration, class symbols, Table 3
Protocol: Lipid nanoparticles comprising compounds 1-10 encapsulating human erythropoietin (hEPO) mRNA were systemically administered to 6-8 week old female ICR mice (Xipuer-Bikai, Shanghai) at 0.5 mg/kg dose by tail vein injection and mice blood were sampled at specific time points (e.g., 6 hours) post administration. In addition to the aforementioned tested groups, lipid nanoparticles comprising dilinoleylmethyl-4-dimethylaminobutyrate (DLin-MC3-DMA, usually abbreviated to MC3) encapsulating hEPO mRNA were similarly administered at the same dose to age and gender comparative groups of mice as a positive control.
Mice were euthanized by CO2 overdoses after the last sampling time point. Serum were separated from total blood by centrifugation at 5000 g for 10 minutes at 4° C., snap-frozen and stored at −80° C. for analysis. ELSA assay were carried out using a commercial kit (DEP00, R&D systems) according to manufacturer's instructions.
Characteristics of tested lipid nanoparticles, including hEPO expression levels (μg/ml) measured from the tested group are listed the tables below and plotted in FIG. 2.

Encapsulation Efficiency [1] [%] | polydispersity [2] | size nm [2] [nm] | Compound | Expression at 6 h (μg/ml) [3]
18.18 | 0.209 | 57.6 | CCCCCCCCC(CCCCCC)COC(=O)CCCCCC(CCCCCC(=O)OCC(CCCCCC)CCCCCCCC)CN(CCO)C1CCCCCCC1 (stereo not shown) [Compound 17] | D (<0.1)
93.9 | 0.14 | 60.64 | CCCCCCCCC(CCCCCC)COC(=O)CCCCCN(CCCCCC(=O)OCC(CCCCCC)CCCCCCCC)CCN(CCO)C1CCC(F)(F)CC1 (stereo not shown) [Compound 23] | B (≥1 and <2)
96.7 | 0.125 | 55.51 | CCCCCCCCC(CCCCCC)CC(=O)COCCCCN(CCCCCOC(=O)CC(CCCCCC)CCCCCCCC)CCN(CCO)C1CCCCC1 (stereo not shown) [Compound 26] | C (≥0.1 and <1)
95.9 | 0.071 | 80.46 | CCCCCCCCC(CCCCCC)COC(=O)CCCCCN(CCCCCC(=O)OCC(CCCCCC)CCCCCCCC)CCN(CCCCCCO)C1CCC1 (stereo not shown) [Compound 30] | B (≥1 and <2)
99.2 | 0.081 | 66.39 | CCCCCCCCC(CCCCCC)C(CCC)OC(=O)CCCCCN(CCCCCC(=O)OC(CCC)C(CCCCCC)CCCCCCCC)CCN(CCO)C1CCC1 (stereo not shown) [Compound 40] | C (≥0.1 and <1)
97.3 | 0.068 | 74.8 | CCCCCCCCCCC(CCCCCC)COC(=O)CCCCCCN(CCCCCCC(=O)OCC(CCCCCC)CCCCCCCCCC)CCN(CCO)C1CCC1 (stereo not shown) [Compound 43] | B (≥1 and <2)
96.6 | 0.032 | 71.47 | CCCCCCCCC(CCCCCC)C(=O)OCCCCCCN(CCCCCCOC(=O)C(CCCCCC)CCCCCCCC)CCN(CCO)C1CCC1 (stereo not shown) [Compound 45] | A (≥2)
95.3 | 0.103 | 62.38 | CCCCCCCCCCCCC(CCCCCC)COC(=O)CCCN(CCCC(=O)OCC(CCCCCC)CCCCCCCCCCCC)CCN(CCO)C1CCC1 (stereo not shown) [Compound 47] | C (≥0.1 and <1)
95.70 | 0.054 | 69.18 | CCCCCCCCCCC(CCCCCCCCCC)COC(=O)CCCCCN(CCCCCC(=O)OCC(CCCCCCCCCC)CCCCCCCCCC)CCN(CCO)C1CCC1 [Compound 52] | A (≥2)
97.2 | 0.051 | 102.7 | CCCCCCCCC(CCCCCC)COC(=O)CCCCCN(CCCCCC(=O)OCC(CCCCCC)CCCCCCCC)CCN(C)C1CCC(O)CC1 (stereo not shown) [Compound 54] | D (<0.1)
96.7 | 0.109 | 95.51 | CCCCCCCCC(CCCCCC)COC(=O)CCCCCN(CCCCCC(=O)OCC(CCCCCC)CCCCCCCC)CCN(CC)C1CCC(O)CC1 (stereo not shown) [Compound 55] | C (≥0.1 and <1)
83.4 | 0.087 | 65.04 | CCCCCCCCC(CCCCCC)COC(=O)CCCCCN(CCCCCC(=O)OCC(CCCCCC)CCCCCCCC)CCN(CCCCC)C1CCC(O)CC1 (stereo not shown) [Compound 61] | A (≥2)
84.1 | 0.181 | 84.93 | CCCCCCCCC(CCCCCC)COC(=O)CCCCCN(CCCCCC(=O)OCC(CCCCCC)CCCCCCCC)CCN(CCOC(C)=O)C1CCC1 (stereo not shown) [Compound 64] | D (<0.1)
78.3 | 0.06 | 58.74 | CCCCCCCCC(CCCCCCCC)COC(=O)CCCCCN(CCCCCC(=O)OCC(CCCCCCCC)CCCCCCCC)CCN(CCC)C1CCCCC1O (stereo not shown) [Compound 69] | D (<0.1)
93.1 | 0.027 | 78.99 | CCCCCCCCC(CCCCCCCC)COC(=O)CCCCCN(CCCCCC(=O)OCC(CCCCCCCC)CCCCCCCC)CCN(C)C1CCC(O)CC1 (stereo not shown) [Compound 73] | C (≥0.1 and <1)
94.1 | 0.032 | 62.36 | CCCCCCCCC(CCCCCCCC)COC(=O)CCCCCN(CCCCCC(=O)OCC(CCCCCCCC)CCCCCCCC)CCN(CCCCCC)C1CCC(O)CC1 (stereo not shown) [Compound 75] | A (≥2)
91.71 | 0.096 | 54.94 | CCCCCCCCC(CCCCCCCC)COC(=O)CCCCCN(CCCCCC(=O)OCC(CCCCCCCC)CCCCCCCC)CCN(CCO)C1CC(c2ccccc2)C1 (stereo not shown) [Compound 76] | C (≥0.1 and <1)
92.4 | 0.091 | 44.47 | CCCCCCCCC(CCCCCCCC)COC(=O)CCCCCN(CCCCCC(=O)OCC(CCCCCCCC)CCCCCCCC)CCN(CCO)C1CCC(F)(F)CC1 [Compound 78] | C (≥0.1 and <1)
100.3 | 0.298 | 67.01 | CCCCCCCCC(CCCCCC)COC(=O)CCCCCN(CCCCCC(=O)OCC(CCCCCC)CCCCCCCC)CCN(CCO)C1CCN(C)CC1 (stereo not shown) [Compound 94] | D (<0.1)
97.2 | 0.285 | 82.43 | CCCCCCCCC(CCCCCC)COC(=O)CCCCCN(CCCCCC(=O)OCC(CCCCCC)CCCCCCCC)CCN1CCC(O)C1 (stereo not shown) [Compound 95] | D (<0.1)
96.9 | 0.101 | 85.98 | CCCCCCCCC(CCCCCC)COC(=O)CCCCCN(CCCCCC(=O)OCC(CCCCCC)CCCCCCCC)CCN1CCC(O)CC1 (stereo not shown) [Compound 96] | D (<0.1)
96.8 | 0.204 | 66.69 | CCCCCCCCC(CCCCCC)COC(=O)CCCCCN(CCCCCC(=O)OCC(CCCCCC)CCCCCCCC)CCN1CC(O)C1 (stereo not shown) [Compound 97] | D (<0.1)
97.6 | 0.105 | 86.23 | CCCCCCCCC(CCCCCC)COC(=O)CCCCCN(CCCCCC(=O)OCC(CCCCCC)CCCCCCCC)C1CCN(CCO)CC1 (stereo not shown) [Compound 98] | D (<0.1)
100.2 | 0.1 | 66.06 | CCCCCCCCC(CCCCCC)COC(=O)CCCCCN(CCCCCC(=O)OCC(CCCCCC)CCCCCCCC)CCN(C1CCCCC1)C1CCC(O)CC1 (stereo not shown) [Compound 99] | C (≥0.1 and <1)
94.41 | 0.054 | 67.57 | CCCCCCCCC(CCCCCCCC)COC(=O)COCCOCCN(CCOCCOCC(=O)OCC(CCCCCCCC)CCCCCCCC)CCN(CCO)C1CCC1 [Compound 103] | C (≥0.1 and <1)
